# Measured values taken from patent US10160762B2, “6-alkyl dihydropyrazolopyrimidinone compounds as PDE2 inhibitors” (Merck Sharp & Dohme Corp., priority 2015, dated 2018).
# Molecular target: T1, human PDE2A1 (Homo sapiens, UniProt O00408)
# T1 construct: GST; purchased BPS Bioscience (San Diego, Calif.) 60020; host or cells: insect cells
# Assay: IMAP FP PDE assay, human PDE2A1
# Assay type: biochemical
# Settings: Lab A; read-out: Human PDE2 Ki (nM) Lab A
# Protocol: Selectivity for PDE2, as compared to other PDE families, was assessed using the IMAP® technology. Human PDE10A2 enzyme was prepared from cytosolic fractions of transiently transfected HEK cells. All other PDE's were GST Tag human enzyme expressed in insect cells and were obtained from BPS Bioscience (San Diego, Calif.): PDE1A (Cat#60010), human PDE2A1 (Cat#60020), PDE3A (Cat#60030), PDE4A1A (Cat#60040), PDE5A1 (Cat#60050), PDE6C (Cat#60060), PDE7A (Cat#60070), PDE8A1 (Cat#60080), PDE9A2 (Cat#60090), PDE11A4 (Cat#60110).
# Assays for PDE 1 through 11 were performed in parallel at room temperature in 384-well microtiter plates with an incubation volume of 20.2 μL. Solutions of test compounds were prepared in DMSO and serially diluted with DMSO to yield 30 μL of each of ten solutions differing by 3-fold in concentration, at 32 serial dilutions per plate. […] A Labcyte POD 810 (Labcyte, Sunnyvale, Calif.) was used to dispense 200 nL from each well of the titration plate to make eleven copies of the assay plate for each titration, one copy for each PDE enzyme. A solution of each enzyme (dilution from aliquots, sufficient to produce 20% substrate conversion) and a separate solution of FAM-labeled cAMP or FAM-labeled cGMP from Molecular Devices (Sunnyvale, Calif., product # R7506 or cGMP#R7508), at a final concentration of 50 nM were made in the assay buffer (10 mM Tris HCl, pH 7.2, 10 mM MgCl2, 0.05% NaN3 0.01% Tween-20, and 1 mM DTT). Note that the substrate for PDE2 is 50 nM FAM cAMP containing 1000 nM of cGMP. The enzyme and the substrate were then added to the assay plates in two consecutive additions of 10 μL and then shaken to mix. The reaction was allowed to proceed at room temperature for 60 minutes. A binding solution was then made from the kit components, comprised of 80% Solution A, 20% Solution B and binding reagent at a volume of 1/600 the total binding solution. The enzymatic reaction was stopped by addition of 60 μL of the binding solution to each well of the assay plate. The plates were sealed and shaken for 10 seconds. The plates were incubated at room temperature for one hour, then the parallel and perpendicular fluorescence was measured using a Tecan Genios Pro plate reader (Tecan, Switzerland). The apparent inhibition constants for the compounds against all 11 PDE's was determined from the parallel and perpendicular fluorescent readings as described for PDE10 FP assay using the following apparent KM values for each enzyme and substrate combination: PDE1A (FAM cGMP) 70 nM, human PDE2A1 (FAM cAMP) 10,000 nM, PDE3A (FAM cAMP) 50 nM, PDE4A1A (FAM cAMP) 1500 nM, PDE5A1 (FAM cGMP) 400 nM, PDE6C (FAM cGMP) 700 nM, PDE7A (FAM cAMP) 150 nM, PDE8A1 (FAM cAMP) 50 nM, PDE9A2 (FAM cGMP) 60 nM, PDE10A2 (FAM cAMP) 150 nM, PDE11A4 (FAM cAMP) 1000 nM. The intrinsic PDE2 inhibitory activity of a compound which may be used in accordance with the present invention may be determined by these assays.
# T1 sequence (O00408 1-920 isoform O00408-2): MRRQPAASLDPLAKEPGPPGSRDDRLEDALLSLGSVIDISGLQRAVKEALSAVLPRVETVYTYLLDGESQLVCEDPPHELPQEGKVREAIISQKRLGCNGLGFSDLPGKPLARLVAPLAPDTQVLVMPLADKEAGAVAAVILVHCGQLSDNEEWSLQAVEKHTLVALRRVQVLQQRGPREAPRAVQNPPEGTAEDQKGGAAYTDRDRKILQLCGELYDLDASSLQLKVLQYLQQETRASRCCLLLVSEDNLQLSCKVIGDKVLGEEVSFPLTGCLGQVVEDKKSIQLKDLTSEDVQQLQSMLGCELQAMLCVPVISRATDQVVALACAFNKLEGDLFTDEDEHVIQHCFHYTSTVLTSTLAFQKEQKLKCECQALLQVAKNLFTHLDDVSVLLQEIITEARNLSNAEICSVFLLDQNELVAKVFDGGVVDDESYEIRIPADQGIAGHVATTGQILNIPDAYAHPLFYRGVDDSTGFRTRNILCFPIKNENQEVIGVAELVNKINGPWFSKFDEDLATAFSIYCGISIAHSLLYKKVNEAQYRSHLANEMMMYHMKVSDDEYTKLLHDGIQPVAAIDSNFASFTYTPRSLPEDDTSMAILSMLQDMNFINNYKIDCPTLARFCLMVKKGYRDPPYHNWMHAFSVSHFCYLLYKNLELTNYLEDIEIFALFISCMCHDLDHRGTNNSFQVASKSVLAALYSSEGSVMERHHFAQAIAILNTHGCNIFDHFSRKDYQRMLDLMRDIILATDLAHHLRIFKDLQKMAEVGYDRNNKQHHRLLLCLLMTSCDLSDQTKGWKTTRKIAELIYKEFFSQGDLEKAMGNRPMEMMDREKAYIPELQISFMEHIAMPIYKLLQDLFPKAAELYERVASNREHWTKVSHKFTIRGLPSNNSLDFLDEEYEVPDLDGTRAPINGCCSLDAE
row,Ki,SMILES
1,0.72 nM,"COc1ccc(Cc2nc3c(c(CO)nn3C(C)c3ccc(C(F)(F)F)cc3)c(=O)[nH]2)cc1OC (racemic) [Example 297, 6-(3,4-Dimethoxybenzyl)-3-(hydroxymethyl)-1-{1-[4-(trifluoromethyl)phenyl]ethyl}-1,5-dihydro-4H-pyrazolo[3,4-d]pyrimidin-4-one]"

# Same assay, conditions: Lab B; read-out: Human PDE2 Ki (nM) Lab B
row,SMILES,Ki
1,"Cc1nc2c(c(CO)nn2C(c2ccc(C(F)(F)F)c(F)c2)C2(C)CC2)c(=O)[nH]1 (single isomer, unassigned) [Example 15, (S)- or (R)-1-((3-Fluoro-4-(trifluoromethyl)phenyl)(1-methylcyclopropyl)methyl)-3-(hydroxymethyl)-6-methyl-1H-pyrazolo[3,4-d]pyrimidin-4(5H)-one]",154 nM
2,"Cc1nc2c(c(CO)nn2C(C)c2ccc(C(F)(F)F)cc2F)c(=O)[nH]1 (single isomer, unassigned) [Example 16, (R)- or (S)-1-(1-(2-Fluoro-4-(trifluoromethyl)phenyl)ethyl)-3-(hydroxymethyl)-6-methyl-1H-pyrazolo[3,4-d]pyrimidin-4(5H)-one]",81 nM
3,"Cc1nc2c(c(CO)nn2C(C)c2ccc(C(F)(F)F)cc2Cl)c(=O)[nH]1 (single isomer, unassigned) [Example 18, (R)- or (S)-1-(1-(2-Chloro-4-(trifluoromethyl)phenyl)ethyl)-3-(hydroxymethyl)-6-methyl-1H-pyrazolo[3,4-d]pyrimidin-4(5H)-one]",~2850 nM
4,"Cc1nc2c(c(CO)nn2C(C)c2ccc(OC(F)F)cc2)c(=O)[nH]1 (single isomer, unassigned) [Example 20, (R)- or (S)-1-(1-(4-(Difluoromethoxy)phenyl)ethyl)-3-(hydroxymethyl)-6-methyl-1H-pyrazolo[3,4-d]pyrimidin-4(5H)-one]",305 nM
5,"Cc1nc2c(c(CO)nn2C(C)c2ccc(SC(F)(F)F)cc2)c(=O)[nH]1 (single isomer, unassigned) [Example 22, (R)- or (S)-3-(Hydroxymethyl)-6-methyl-1-(1-(4-(trifluoromethylthio)phenyl)ethyl)-1H-pyrazolo[3,4-d]pyrimidin-4(5H)-one]",125 nM
6,"Cc1nc2c(c(CC(F)(F)F)nn2C(c2ccc(C(F)(F)F)c(F)c2)C(C)(C)C)c(=O)[nH]1 (single isomer, unassigned) [Example 60, (R)- or (S)-1-(1-(3-Fluoro-4-(trifluoromethyl)phenyl)-2,2-dimethylpropyl)-6-methyl-3-(2,2,2-trifluoroethyl)-1H-pyrazolo[3,4-d]pyrimidin-4(5H)-one]",> 2960 nM
7,"Cc1nc2c(c(CC(F)(F)F)nn2C(c2ccc(C(F)(F)F)c(F)c2)C2(C)CC2)c(=O)[nH]1 (single isomer, unassigned) [Example 62, (R)- or (S)-1-((3-Fluoro-4-(trifluoromethyl)phenyl)(1-methylcyclopropyl)methyl)-6-methyl-3-(2,2,2-trifluoroethyl)-1H-pyrazolo[3,4-d]pyrimidin-4(5H)-one]",1100 nM
8,"Cc1nc2c(c(CC(F)(F)F)nn2C(C)c2ccc(C(F)(F)F)cc2)c(=O)[nH]1 (single isomer, unassigned) [Example 64, (R)- or (S)-6-Methyl-3-(2,2,2-trifluoroethyl)-1-(1-(4-(trifluoromethyl)phenyl)ethyl)-1H-pyrazolo[3,4-d]pyrimidin-4(5H)-one]",274 nM
9,"Cc1nc2c(c(CC(F)(F)F)nn2C(C)c2ccc(OC(F)(F)F)cc2)c(=O)[nH]1 (single isomer, unassigned) [Example 66, (R)- or (S)-6-Methyl-3-(2,2,2-trifluoroethyl)-1-(1-(4-(trifluoromethoxy)phenyl)ethyl)-1H-pyrazolo[3,4-d]pyrimidin-4(5H)-one]",327 nM
10,"Cc1nc2c(c(C(F)(F)F)nn2C(C)c2ccc(C(F)(F)F)cc2)c(=O)[nH]1 (single isomer, unassigned) [Example 69, (S)- or-(R)-6-Methyl-3-(trifluoromethyl)-1-(1-(4-(trifluoromethyl)phenyl)ethyl)-1H-pyrazolo[3,4-d]pyrimidin-4(5H)-one]",713 nM
11,"Cc1nc2c(c(C3CCCO3)nn2C(C)c2ccc(C(F)(F)F)cc2)c(=O)[nH]1 (single isomer, unassigned) [Example 70, (R, R)- or (R, S) or (S, R) or (S, S)-6-Methyl-3-(-tetrahydrofuran-(trifluoromethyl)phenyl)ethyl)-1H-pyrazolo[3,4-d]pyrimidin-4(5H)-one]",159 nM
12,"Cc1nc2c(c(C3CCCO3)nn2C(C)c2ccc(C(F)(F)F)cc2)c(=O)[nH]1 (single isomer, unassigned) [Example 71, (R, S)- or (R, R)- or (S, R)- or (S, S)-6-Methyl-3-(-tetrahydrofuran-2-yl)-1-(-l-(4-(trifluoromethyl)phenyl)ethyl)-1H-pyrazolo[3,4-d]pyrimidin-4(5H)-one]",111 nM
13,"Cc1nc2c(c(C3CCCO3)nn2C(C)c2ccc(C(F)(F)F)cc2)c(=O)[nH]1 (single isomer, unassigned) [Example 72, (S, R)- or (S, S)- or (R, S)- or (R, R)-6-Methyl-3-(-tetrahydrofuran-(trifluoromethyl)phenyl)ethyl)-1H-pyrazolo[3,4-d]pyrimidin-4(5H)-one]",570 nM

# The remaining lines, values ahead:
row,Ki,SMILES
1,62 nM,"CC1CCC(Cc2nc3c(c(CO)nn3C(C)c3ccc(C(F)(F)F)cc3)c(=O)[nH]2)O1 (racemic) [Example 298, 3-(Hydroxymethyl)-6-[(5-methyltetrahydrofuran-2-yl)methyl]-1-{1-[4-(trifluoromethyl)phenyl]ethyl}-1,5-dihydro-4H-pyrazolo[3,4-d]pyrimidin-4-one]"
2,2.4 nM,"Cc1nc2c(c(CO)nn2C(c2ccc(C(F)(F)F)c(F)c2)C2(C)CC2)c(=O)[nH]1 (single isomer, unassigned) [Example 14, (R)- or (S)-1-((3-Fluoro-4-(trifluoromethyl)phenyl)(1-methylcyclopropyl)methyl)-3-(hydroxymethyl)-6-methyl-1H-pyrazolo[3,4-d]pyrimidin-4(5H)-one]"
3,55 nM,"Cc1nc2c(c(CC(F)(F)F)nn2C(c2ccc(C(F)(F)F)c(F)c2)C(C)(C)C)c(=O)[nH]1 (single isomer, unassigned) [Example 61, (S)- or (R)-1-(1-(3-Fluoro-4-(trifluoromethyl)phenyl)-2,2-dimethylpropyl)-6-methyl-3-(2,2,2-trifluoroethyl)-1H-pyrazolo[3,4-d]pyrimidin-4(5H)-one]"
4,45 nM,"Cc1nc2c(c(CC(F)(F)F)nn2C(c2ccc(C(F)(F)F)c(F)c2)C2(C)CC2)c(=O)[nH]1 (single isomer, unassigned) [Example 63, (S)- or (R)-1-((3-Fluoro-4-(trifluoromethyl)phenyl)(1-methylcyclopropyl)methyl)-6-methyl-3-(2,2,2-trifluoroethyl)-1H-pyrazolo[3,4-d]pyrimidin-4(5H)-one]"
5,5 nM,"Cc1nc2c(c(CC(F)(F)F)nn2C(C)c2ccc(C(F)(F)F)cc2)c(=O)[nH]1 (single isomer, unassigned) [Example 65, (S)- or (R)-6-Methyl-3-(2,2,2-trifluoroethyl)-1-(1-(4-(trifluoromethyl)phenyl)ethyl)-1H-pyrazolo[3,4-d]pyrimidin-4(5H)-one]"
6,6.7 nM,"Cc1nc2c(c(CC(F)(F)F)nn2C(C)c2ccc(OC(F)(F)F)cc2)c(=O)[nH]1 (single isomer, unassigned) [Example 67, (S)- or (R)-6-Methyl-3-(2,2,2-trifluoroethyl)-1-(1-(4-(trifluoromethoxy)phenyl)ethyl)-1H-pyrazolo[3,4-d]pyrimidin-4(5H)-one]"
7,8.6 nM,"Cc1nc2c(c(C(F)(F)F)nn2C(C)c2ccc(C(F)(F)F)cc2)c(=O)[nH]1 (single isomer, unassigned) [Example 68, (R)- or (S)-6-Methyl-3-(trifluoromethyl)-1-(1-(4-(trifluoromethyl)phenyl)ethyl)-1H-pyrazolo[3,4-d]pyrimidin-4(5H)-one]"
